Results on 46 compounds are retold here after PubChem BioAssay AID720726 (Broad Institute, 2013).

The source made the active and inactive calls.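 The calls were made as follows: active = fitted dose curve rising to 40 percent activity within the top usable dose; inconclusive = flat curve between 30 and 70 percent, or poor fit; inactive = the rest, including signal moving the wrong way.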

A short description of one assay: activators raising endogenous miR-122 levels, dose response, orthogonal assay, cell-based, Huh7, qRT-PCR, dry powder (AID 720726). The note with it: Huh7 miR-122 levels, qRT-PCR, 48 h; at 30 µM (top of the series). For orientation: Quantitative PCR measures a nucleic acid by following its amplification.
For the compound `CN1C(=O)c2cc(NC(=O)c3cccc(F)c3)ccc2OC[C@@H]2O[C@@H](CC(=O)O)CC[C@H]21`, the miR-122 fold change is 0.927 fold change (inactive).

The same assay, now with this note: Huh7 miR-122 levels, qRT-PCR, 48 h; at 35 µM (top of the series).
Take `Cc1cc(C(C)(C)C)cc(S(=O)(=O)NCCc2ccncc2)c1C`: the miR-122 fold change was 1.04 fold change (inactive).

As for `CN1C(=O)c2cc(NC(=O)c3cccc(F)c3)ccc2OC[C@H]2O[C@@H](CC(=O)O)CC[C@@H]21`, the miR-122 fold change was 1.24 fold change (inactive).

As for `C[C@@H]1CN([C@H](C)CO)S(=O)(=O)c2ccc(C#Cc3ccncc3)cc2O[C@@H]1CN(C)C(=O)C1CCOCC1`, the miR-122 fold change is 0.732 fold change (inactive).

On to `Cn1c(=O)c(=O)n(C)c2cc(S(=O)(=O)N3CCOCC3)ccc21`, for which the miR-122 fold change was 1.28 fold change (inactive).

As to `CCn1cc(C(=O)O)c(=O)c2cc(F)c(N3CCNCC3)nc21`, the miR-122 fold change was 0.972 fold change (inactive).

Consider `CCN(CC)C(=O)c1cccc(NC(=O)c2ccc(Cl)cc2Cl)c1`, for which the miR-122 fold change was 0.931 fold change (inactive).

In the case of `CN1C(=O)c2cc(NC(=O)c3cccc(F)c3)ccc2OC[C@@H]2O[C@H](CC(=O)O)CC[C@@H]21`, the miR-122 fold change is 0.92 fold change (inactive).

As for `C[C@@H]1CN([C@H](C)CO)S(=O)(=O)c2ccc(/C=C/c3ccccc3)cc2O[C@@H]1CN(C)C(=O)c1cccnc1`, the miR-122 fold change is 1.11 fold change (inactive).

On to `O=C(c1ccc(CN2CCOCC2)cc1)N1CCc2ccccc21`, for which the miR-122 fold change was 1 fold change (inactive).

Turning to `O=C(CNCCC1=CCCCC1)Nc1ccccc1N1CCCCCC1`, the miR-122 fold change is 0.489 fold change (inactive).

Consider `C[C@H]1CN([C@@H](C)CO)C(=O)c2cc(-c3ccc(C#N)cc3)cnc2O[C@H]1CN(C)Cc1cncnc1`, for which the miR-122 fold change is 0.987 fold change (inactive).

`O=S(=O)(NCCc1ccncc1)c1ccccc1`: the miR-122 fold change is 1.01 fold change (inactive).

With `Nc1ccc(Oc2ccc(Br)cc2)cc1`, the miR-122 fold change is 0.505 fold change (inactive).

With `COCC(=O)N(C)C[C@H]1Oc2cc(-c3ccc(C#N)cc3)ccc2S(=O)(=O)N([C@@H](C)CO)C[C@H]1C`, the miR-122 fold change was 1.17 fold change (inactive).

For the compound `COc1cccc(-c2ccc3c(c2)O[C@H](CN(C)C(=O)C2CCOCC2)[C@H](C)CN([C@@H](C)CO)S3(=O)=O)c1`, the miR-122 fold change is 0.896 fold change (inactive).

Consider `C[C@@H]1CN([C@@H](C)CO)S(=O)(=O)c2ccc(C#Cc3ccncc3)cc2O[C@@H]1CN(C)C(=O)C1CCOCC1`, for which the miR-122 fold change is 0.563 fold change (inactive).

Regarding `C[C@H](CO)N1C[C@H](C)[C@@H](CN(C)C(=O)C2CCOCC2)Oc2cc(C#Cc3ccncc3)ccc2S1(=O)=O`, the miR-122 fold change was 0.407 fold change (inactive).

With `C[C@H]1CN([C@@H](C)CO)S(=O)(=O)c2ccc(C#Cc3ccncc3)cc2O[C@@H]1CN(C)C(=O)C1CCOCC1`, the miR-122 fold change was 0.399 fold change (inactive).

With `CCOC(=O)N1CCC(NC(=O)c2ccc3c(c2)sc2nc(-c4ccccc4)cn23)CC1`, the miR-122 fold change was 0.356 fold change (inactive).

For `CN1C(=O)c2cc(NC(=O)c3cccc(F)c3)ccc2OC[C@H]2O[C@@H](CC(=O)O)CC[C@H]21`, the miR-122 fold change was 1.38 fold change (inactive).

In the case of `COCC(=O)N(C)C[C@@H]1Oc2ncc(-c3ccc(C#N)cc3)cc2C(=O)N([C@@H](C)CO)C[C@@H]1C`, the miR-122 fold change was 1.01 fold change (inactive).

Consider `COCC(=O)N(C)C[C@H]1Oc2cc(C#Cc3cccnc3)ccc2S(=O)(=O)N([C@@H](C)CO)C[C@H]1C`, for which the miR-122 fold change was 0.983 fold change (inactive).

On to `CN(C)CCCOc1nn(Cc2ccccc2)c2ccccc12`, for which the miR-122 fold change was 1.5 fold change (inactive).

`CCOC(=O)N1CCC(NC(=O)c2ccc3nc(N4CCC(C)CC4)sc3c2)CC1`: the miR-122 fold change is 1 fold change (inactive).

Take `CCCCN(CCCC)C(=O)CN(C)S(=O)(=O)c1ccc2c(c1)n(C)c(=O)c(=O)n2C`: the miR-122 fold change is 0.906 fold change (inactive).

Turning to `CO[C@@H]1CN(C)C(=O)c2cc(NS(=O)(=O)c3ccc(Oc4ccccc4)cc3)ccc2OC[C@H](C)NC[C@@H]1C`, the miR-122 fold change is 0.882 fold change (inactive).

On to `O=C(NCc1ccccc1Cl)c1ccc(CNc2c(NC3CCCCC3)c(=O)c2=O)cc1`, for which the miR-122 fold change was 0.171 fold change (inactive).

Turning to `OCc1ccc(-c2nn(Cc3ccccc3)c3ccccc23)o1`, the miR-122 fold change is 0.428 fold change (inactive).

For the compound `C[C@H]1CN([C@@H](C)CO)C(=O)c2cc(C#Cc3ccccc3F)cnc2O[C@H]1CN(C)C(=O)C1CCCCC1`, the miR-122 fold change was 0.569 fold change (inactive).

For the compound `COc1ccc(S(=O)(=O)N(C)C[C@@H]2Oc3ncc(/C=C/c4ccccc4)cc3C(=O)N([C@@H](C)CO)C[C@@H]2C)cc1`, the miR-122 fold change is 0.9 fold change (inactive).

In the case of `CN(CC(=O)Nc1cccc(Cl)c1)S(=O)(=O)c1ccc2c(c1)n(C)c(=O)c(=O)n2C`, the miR-122 fold change is 1.27 fold change (inactive).

As to `O=C(c1ccc(CNc2c(NC3CCCCC3)c(=O)c2=O)cc1)N1CCc2ccccc21`, the miR-122 fold change was 0.521 fold change (inactive).

As for `C[C@H]1CN([C@@H](C)CO)C(=O)c2cc(-c3ccc(C#N)cc3)cnc2O[C@H]1CN(C)C(=O)Nc1ccc(C(F)(F)F)cc1`, the miR-122 fold change was 0.749 fold change (inactive).

As for `CN1C(=O)c2cc(NC(=O)c3cccc(F)c3)ccc2OC[C@H]2O[C@H](CC(=O)O)CC[C@@H]21`, the miR-122 fold change is 0.869 fold change (inactive).

On to `O=C(NCCC1=CCCCC1)c1ccc2c(c1)sc1nc(-c3ccccc3)cn12`, for which the miR-122 fold change was 0.828 fold change (inactive).

Turning to `CNC[C@@H]1Oc2cc(C#CC3CCCCC3)ccc2S(=O)(=O)N([C@@H](C)CO)C[C@@H]1C`, the miR-122 fold change was 1.07 fold change (inactive).

For the compound `CN1C(=O)c2cc(NC(=O)c3cccc(F)c3)ccc2OC[C@@H]2O[C@H](CC(=O)O)CC[C@H]21`, the miR-122 fold change was 0.958 fold change (inactive).

`CO[C@@H]1CN(C)C(=O)c2cc(NC(=O)c3cccc(Oc4ccccc4)c3)ccc2OC[C@H](C)NC[C@@H]1C`: the miR-122 fold change is 0.113 fold change (inactive).

On to `CN1C(=O)c2cc(NC(=O)c3cccc(F)c3)ccc2OC[C@H]2O[C@H](CC(=O)O)CC[C@H]21`, for which the miR-122 fold change was 0.909 fold change (inactive).

As to `C[C@H](CO)N1C[C@H](C)[C@H](CN(C)C(=O)C2CCOCC2)Oc2cc(C#Cc3ccncc3)ccc2S1(=O)=O`, the miR-122 fold change was 0.417 fold change (inactive).

With `C[C@@H]1CN([C@H](C)CO)S(=O)(=O)c2ccc(C#Cc3ccncc3)cc2O[C@H]1CN(C)C(=O)C1CCOCC1`, the miR-122 fold change is 0.486 fold change (inactive).

Turning to `CN1C(=O)c2cc(NC(=O)c3cccc(F)c3)ccc2OC[C@@H]2O[C@@H](CC(=O)O)CC[C@@H]21`, the miR-122 fold change is 0.94 fold change (inactive).

On to `C[C@H]1CN([C@@H](C)CO)C(=O)c2cc(-c3ccc(C#N)cc3)cnc2O[C@H]1CN(C)C(=O)c1ccccc1`, for which the miR-122 fold change was 1.14 fold change (inactive).

Take `COc1cccc(C(=O)Nc2ccc3c(c2)C(=O)N(C)C[C@@H](OC)[C@@H](C)CN[C@@H](C)CO3)c1`: the miR-122 fold change was 1.15 fold change (inactive).

For the compound `COCC(=O)N(C)C[C@H]1Oc2cc(-c3ccccc3F)ccc2S(=O)(=O)N([C@@H](C)CO)C[C@H]1C`, the miR-122 fold change was 0.823 fold change (inactive).
